Literature values as cited in article PMC9063426, “MAP kinases differentially bind and phosphorylate NOS3 via two unique NOS3 sites” (FEBS Open Bio, 2022).
Where no end group is shown, it is not given here.

Assays:
NOS3 = conditions: endothelial cells, inhibition and dominant negative experiments, via S114 phosphorylation; ref [10]; cited from earlier work
ERK-NOS3 complexes = test system: ERK-NOS3 complexes; design: method as in PMID 10899167; conditions: BAECs treated with bradykinin; ref [9]; cited from earlier work

Substance | cellular NO production (NOS3) | effect on ERK-NOS3 complexes (ERK-NOS3 complexes)
JNK2: JNK2, shown to inhibit cellular NO production | inhibited cellular NO production | 
RPPGFSPFR [bradykinin] |  | caused ERK to disassociate from NOS3 complexes and over time the complex reassociated
